Data on three compounds can be found in paper PMC10227065, “Structures of Tetrahymena thermophila respiratory megacomplexes on the tubular mitochondrial cristae” (Nature Communications, 2023).

In experiment [1] the target is T1, Tt-CII (SDHA/SDHB hydrophilic head) (Tetrahymena thermophila, UniProt Q23DI3).
T1 construct: gene TTHERM_00047080
Description: cyt c reduction/oxidation, […] nm. The format is biochemical. The following applies: 5 mM malonate; 5 mM succinate, 50 uM decylubiquinone, 100 uM Tt-cyt c, 10 nM megacomplex, pH 7.4, 0.1% digitonin, room temperature.

For experiment [2], the target named is T2, NDUA9 (Tt-CI subunit) (Tetrahymena thermophila, UniProt I7MLH2).
T2 construct: gene TTHERM_00557760
T2 sequence (I7MLH2 27-362): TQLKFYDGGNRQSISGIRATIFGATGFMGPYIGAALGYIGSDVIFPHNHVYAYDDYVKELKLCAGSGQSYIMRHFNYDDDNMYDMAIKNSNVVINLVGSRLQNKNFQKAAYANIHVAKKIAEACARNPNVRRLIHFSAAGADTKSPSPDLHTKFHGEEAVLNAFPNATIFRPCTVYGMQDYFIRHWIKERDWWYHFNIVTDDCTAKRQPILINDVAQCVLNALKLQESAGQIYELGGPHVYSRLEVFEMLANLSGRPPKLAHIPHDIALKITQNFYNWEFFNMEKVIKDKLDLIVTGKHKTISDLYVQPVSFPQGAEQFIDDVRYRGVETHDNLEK
Description: cryo-EM structure. The format is binding. The following applies: printed only as NDP group (PDB ligand code). The text has this:
cryo-EM structure on NDUA9 (Tt-CI subunit) | NDP group of NDUA9 and the interfacial heme […]1

For experiment [3], the target named is T1, Tt-CII (SDHA/SDHB hydrophilic head). Put plainly: cryo-EM structure. In kind it is binding.

T1 sequence (Q23DI3 1-636): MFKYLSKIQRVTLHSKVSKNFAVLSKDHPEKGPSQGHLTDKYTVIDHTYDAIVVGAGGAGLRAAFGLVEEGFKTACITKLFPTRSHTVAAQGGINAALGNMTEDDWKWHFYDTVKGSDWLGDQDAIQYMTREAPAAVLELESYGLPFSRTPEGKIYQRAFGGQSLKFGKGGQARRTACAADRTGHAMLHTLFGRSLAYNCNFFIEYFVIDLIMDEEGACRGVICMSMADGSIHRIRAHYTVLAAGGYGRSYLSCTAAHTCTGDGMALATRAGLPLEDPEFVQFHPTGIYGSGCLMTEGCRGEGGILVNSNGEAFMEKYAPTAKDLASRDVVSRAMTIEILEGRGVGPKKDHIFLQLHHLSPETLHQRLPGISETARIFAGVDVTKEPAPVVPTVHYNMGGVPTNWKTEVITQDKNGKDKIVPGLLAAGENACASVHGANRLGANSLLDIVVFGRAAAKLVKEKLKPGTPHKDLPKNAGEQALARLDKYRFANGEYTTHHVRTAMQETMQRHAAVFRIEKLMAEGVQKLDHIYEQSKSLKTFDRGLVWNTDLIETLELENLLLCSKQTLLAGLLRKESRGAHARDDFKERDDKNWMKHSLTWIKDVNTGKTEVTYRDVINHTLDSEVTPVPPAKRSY
T1 sequence (I7M403 21-312 partner): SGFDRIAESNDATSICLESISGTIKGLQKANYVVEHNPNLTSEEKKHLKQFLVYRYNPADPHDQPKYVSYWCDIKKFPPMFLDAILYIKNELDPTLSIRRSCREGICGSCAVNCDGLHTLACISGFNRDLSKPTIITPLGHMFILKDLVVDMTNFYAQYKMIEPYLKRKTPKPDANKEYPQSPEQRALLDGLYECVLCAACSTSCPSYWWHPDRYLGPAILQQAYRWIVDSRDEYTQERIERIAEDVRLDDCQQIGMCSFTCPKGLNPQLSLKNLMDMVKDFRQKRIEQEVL

As to `O=C(O)CC(=O)O` [malonate], in experiment [1], the “cyt c reduction/oxidation, 550 nm” value is “NADH and succinate-dependent activities could be inhibited by CI inhibitor rotenone and CII inhibitor malonate”. On to `NC(=O)C1=CN([C@@H]2O[C@H](COP(=O)(O)OP(=O)(O)OC[C@H]3O[C@@H](n4cnc5c(N)ncnc54)[C@H](OP(=O)(O)O)[C@@H]3O)[C@@H](O)[C@H]2O)C=CC1` [NDP], for which the cryo-EM structure entry in experiment [2] is “NDP group of NDUA9 and the interfacial heme c SDHTT1”. In the case of `Cc1cc2nc3c(=O)[nH]c(=O)nc-3n(C[C@H](O)[C@H](O)[C@H](O)COP(=O)(O)OP(=O)(O)OC[C@H]3O[C@@H](n4cnc5c(N)ncnc54)[C@H](O)[C@@H]3O)c2cc1C` [FAD], the cryo-EM structure entry in experiment [3] is “highly conserved to known CII structures with the FAD and three iron-sulfur clusters in place”.
